Measured values published in patent US20050009889A1 (priority 2002, published 2005).
Marks after values point to notes of the source that are not given here.

Tests used:
Assay type in all cases: in vivo
[1] = tested on: Erysiphe graminis f. sp. tritici; assay: Test A: preventive control of wheat powdery mildew on wheat seedlings; conditions: wheat seedlings sprayed to run-off, inoculated next day, rated after 7 days; concentration not given
Source text: (§1) General protocol for preparing test suspensions: Test compounds are first dissolved in acetone in an amount equal to 3% of the final volume and then suspended at the desired concentration (in ppm) in acetone and purified water (50/50 mix) containing 250 ppm of the surfactant Trem® 014 (polyhydric alcohol esters). The resulting test suspensions are then used in the following tests. Spraying a 200 ppm test suspension to the point of run-off on the test plants is the equivalent of a rate of 500 g/ha.
The test suspension was sprayed to the point of run-off on wheat seedlings. The following day the seedlings were inoculated with a spore dust of Erysiphe graminis f. sp. tritici, (the causal agent of wheat powdery mildew) and incubated in a growth chamber at 20° C. for 7 days, after which disease ratings were made.

Plasmopara viticola [2] = assay: Test G: curative control of grape downy mildew on grape seedlings; conditions: grape seedlings, curative; 100 ppm (footnote *)
Source text: as §1
Grape seedlings are inoculated with a spore suspension of Plasmopara viticola (the casual agent of grape downy mildew) and incubated in a saturated atmosphere at 20° C. for 24 h. The next day, test suspension is sprayed to the point of run-off and the treated plants are moved to a growth chamber at 20° C. for 6 days, and then incubated in a saturated atmosphere at 20° C. for 24 h, after which disease ratings are made.

Plasmopara viticola [3] = assay: Test E: preventive control of grape downy mildew on grape seedlings; conditions: grape seedlings sprayed to run-off, inoculated next day; concentration not given
Source text: as §1
The test suspension was sprayed to the point of run-off on grape seedlings. The following day the seedlings were inoculated with a spore suspension of Plasmopara viticola (the causal agent of grape downy mildew) and incubated in a saturated atmosphere at 20° C. for 24 h, moved to a growth chamber at 20° C. for 6 days, and then incubated in a saturated atmosphere at 20° C. for 24 h, after which disease ratings were made.

grape downy mildew = assay: Curative utility, in addition to the Tests of Table A; conditions: especially for grape downy mildew
Phytophthora infestans [4] = conditions: curative; 100 ppm on potato seedlings
Phytophthora infestans [5] = conditions: tomato seedlings sprayed to run-off, inoculated next day; concentration not given
Puccinia recondita = assay: Test B: preventive control of wheat leaf rust on wheat seedlings; conditions: wheat seedlings sprayed to run-off, inoculated next day; concentration not given
Source text: as §1
The test suspension was sprayed to the point of run-off on wheat seedlings. The following day the seedlings were inoculated with a spore suspension of Puccinia recondita (the causal agent of wheat leaf rust) and incubated in a saturated atmosphere at 20° C. for 24 h, and then moved to a growth chamber at 20° C. for 6 days, after which disease ratings were made.

Pyricularia oryzae = conditions: rice seedlings sprayed to run-off, inoculated next day; concentration not given

Compound | Test A disease control rating (100 = 100% disease control, 0 = no control) [1] [%] | Test G disease control rating (100 = 100% disease control, 0 = no control) (Plasmopara viticola [2]) | Test E disease control rating (100 = 100% disease control, 0 = no control) (Plasmopara viticola [3]) [%] | curative utility (grape downy mildew) | Test F disease control rating (100 = 100% disease control, 0 = no control) (Phytophthora infestans [4]) | Test D disease control rating (100 = 100% disease control, 0 = no control) (Phytophthora infestans [5]) [%] | Test B disease control rating (100 = 100% disease control, 0 = no control) (Puccinia recondita) [%] | Test C disease control rating (100 = 100% disease control, 0 = no control) (Pyricularia oryzae) [%]
2,4-Dichloro-N-[[3-chloro-5-(trifluoromethyl)-2-pyridinyl]methyl]-3-pyridinecarboxamide [Compound 19] | 0 | 37* % | 100 | significant curative utility | 97# % | 100 | 35 | 0
Cc1cnc(Cl)c(C(=O)NCc2ncc(C(F)(F)F)cc2Cl)c1Cl [Compound 20] | 0 | 100* % | 100 | significant curative utility | 24# % | 100 | 54 | 0
